Consider twelve compounds from publication PMC6320941, “Synthesis and Evaluation of 3-Substituted-4-(quinoxalin-6-yl) Pyrazoles as TGF-β Type I Receptor Kinase Inhibitors” (Molecules, 2018).

Data set [1] addresses T1, ALK5 (Homo sapiens, UniProt P36897).
T1 sequence (P36897 205-495 limits assumed): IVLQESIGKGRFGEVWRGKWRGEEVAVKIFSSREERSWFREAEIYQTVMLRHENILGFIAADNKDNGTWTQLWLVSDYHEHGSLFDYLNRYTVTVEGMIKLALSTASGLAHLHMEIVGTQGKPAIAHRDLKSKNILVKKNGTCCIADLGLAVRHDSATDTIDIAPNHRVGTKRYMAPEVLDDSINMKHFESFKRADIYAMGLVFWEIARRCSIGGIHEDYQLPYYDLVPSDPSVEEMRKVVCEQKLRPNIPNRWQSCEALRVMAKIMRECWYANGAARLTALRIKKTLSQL
In words: Radiometric 33PanQinase ALK5 kinase assay (ProQinase), casein substrate. In kind it is biochemical. Particulars: for remaining activity at 10 µM: compound at 10 μM, in duplicate, read-out: Residual Activity (%) ALK5; for Selectivity Index: IC50 of p38α/IC50 of ALK5; for ALK5 inhibitory activity in words: at up to 5.0 μM for 18a–d, 'at up to 2.26 μM' for pyrimidin-4-yl compounds. The protocol:
To investigate whether compounds 14a–d, 15a–d, 16a–d, 17a–d, 18a–d, and 19a–d would inhibit ALK5, a kinase assay for preliminary screening was performed using the purified human ALK5 kinase domain produced in Sf9 insect cells and compounds at 10 μM.
(§1) All kinase experiments were completed by the ProQinase (Freiburg, Germany). All protein kinases were expressed in Sf9 insect cells or in E. coli as recombinant GST-fusion proteins or His-tagged proteins, either as full-length or enzymatically active fragments. All kinases were obtained from human cDNAs and purified by either GSH-affinity chromatography or immobilized metal. The purity of the protein kinases was examined by SDS-PAGE/Coomassie staining. The identity was checked by mass spectroscopy.
(§2) A radiometric protein kinase assay (^33PanQinase® activity assay) was used for measuring the kinase activity of the two protein kinases. All kinase assays were performed in 96-well FlashPlates^TM from PerkinElmer (Boston, MA, USA) in 50 μL reaction volumes. The reaction cocktail was pipetted in four steps in the following order: 20 μL of assay buffer (standard buffer), 5 μL of ATP solution (in H2O), 5 μL of test compound (in 10% DMSO), 20 μL enzyme/substrate mix.
(§3) The assay for all protein kinases contained 70 mM HEPES-NaOH pH 7.5, 3 mM MgCl2, 3 mM MnCl2, 3 μM Na-orthovanadate, 1.2 mM DTT, 50 μg/mL PEG20000, ATP, [γ-^33P]-ATP, protein kinase, and substrate.
(§4) The reaction cocktail was incubated at 30 °C for 60 min. The reaction was halted with 50 μL of 2% (v/v) H3PO4, plates were aspirated and washed two times with 200 μL 0.9% (w/v) NaCl. Incorporation of ^33Pi was established with a microplate scintillation counter (PerkinElmer, Boston, MA, USA). All assays were performed with a BeckmanCoulter/SAGIAN™ Core System.

A further data set has as its target p38α MAP kinase (Homo sapiens, UniProt Q16539). In words: Radiometric 33PanQinase p38α MAP kinase assay (ProQinase), ATF2 substrate. It counts as biochemical. Particulars: for remaining activity at 10 µM: compound at 10 μM, in duplicate, read-out: Residual Activity (%) p38α.
Excerpt: We selected p38α MAP kinase to survey the selectivity profile of this series of compounds because its kinase domain is among the most homologous to that of ALK5 [27].
as §1, §2, §3, §4

In data set [2] the test system is ALK5. Also on record: method as in PMID 16271073. The settings on record: cited from earlier work.

pIC50: −log10 of the molar value. Where only a bound is given, the exact number is not on record here.

Sequence of p38α MAP kinase (Q16539 whole entry, the tested form may be a part): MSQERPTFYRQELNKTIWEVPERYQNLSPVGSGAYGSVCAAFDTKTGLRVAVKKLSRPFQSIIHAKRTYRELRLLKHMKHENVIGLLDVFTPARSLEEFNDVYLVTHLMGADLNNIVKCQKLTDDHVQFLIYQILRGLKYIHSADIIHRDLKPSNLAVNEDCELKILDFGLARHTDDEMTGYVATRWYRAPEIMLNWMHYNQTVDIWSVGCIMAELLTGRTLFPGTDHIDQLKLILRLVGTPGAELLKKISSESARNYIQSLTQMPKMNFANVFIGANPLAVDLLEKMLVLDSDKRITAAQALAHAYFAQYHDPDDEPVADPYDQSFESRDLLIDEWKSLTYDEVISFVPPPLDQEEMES

As usually defined, the melting point is the temperature of the solid-liquid transition. Compound `Cc1csc(-c2nn(CC(=O)Nc3cccc(F)c3)cc2-c2ccc3nccnc3c2)n1` [Compound 16c, N-(3-Fluorophenyl)-2-(3-(4-methylthiazol-2-yl)-4-(quinoxalin-6-yl)-1H-pyrazol-1-yl)acetamide] registered a melting point of 212.1 to 213.5 °C. Also, at ALK5 [1], the remaining activity at 10 µM was 3%. For the same compound, at p38α MAP kinase, the remaining activity at 10 µM was 101%.

For `CN(C)c1cccc(-c2nn(CC(=O)Nc3cccc(C#N)c3)cc2-c2ccc3nccnc3c2)n1` [Compound 14d, N-(3-Cyanophenyl)-2-(3-(6-(dimethylamino)pyridin-2-yl)-4-(quinoxalin-6-yl)-1H-pyrazol-1-yl)acetamide], the melting point fell in the range of 218.5 to 221.5 °C. Also, the remaining activity at 10 µM at ALK5 [1] was 95%. For the same compound, at p38α MAP kinase, the remaining activity at 10 µM amounted to 121%.

What is called IC50 is the midpoint of a concentration-inhibition curve. `CN(C)c1cccc(-c2nn(CC(=S)Nc3ccccc3)cc2-c2ccc3nccnc3c2)n1` [Compound 18a, 2-(3-(6-(Dimethylamino)pyridin-2-yl)-4-(quinoxalin-6-yl)-1H-pyrazol-1-yl)-N-phenylethanethioamide]: the melting point was in the range of 182 to 184 °C. Further, on ALK5 [1], half-maximal inhibition (IC50) required 5.75 µM, the “Selectivity Index” value is reported as greater than 2 and the remaining activity at 10 µM turned out to be 29%. Also, on p38α MAP kinase, the half-inhibitory concentration (IC50) was greater than 10 µM and the remaining activity at 10 µM came out at 119%.

In turn, `N#Cc1cccc(NC(=O)Cn2cc(-c3ccc4nccnc4c3)c(-c3ccncn3)n2)c1` [Compound 25d, N-(3-Cyanophenyl)-2-(3-(pyrimidin-4-yl)-4-(quinoxalin-6-yl)-1H-pyrazol-1-yl)acetamide] yielded a melting point of 178.3 to 180.5 °C. Besides, on ALK5 [1], 4.12 µM corresponded to half-maximal inhibition (IC50), the “Selectivity Index” value is on record as greater than 2 and the “ALK5 inhibitory activity in words” value is on record as “no significant ALK5 inhibition activity”. The compound also came in with an IC50 against p38α MAP kinase greater than 10 µM.

`CN(C)c1cccc(-c2nn(CC(=O)Nc3ccccc3)cc2-c2ccc3nccnc3c2)n1` [Compound 14a, 2-(3-(6-(Dimethylamino)pyridin-2-yl)-4-(quinoxalin-6-yl)-1H-pyrazol-1-yl)-N-phenylacetamide] registered a melting point of 212.5 to 214 °C. The remaining activity at 10 µM at ALK5 [1] came to 85%. Further, the remaining activity at 10 µM on p38α MAP kinase was 110%.

Take `O=C(Cn1cc(-c2ccc3nccnc3c2)c(-c2ccncn2)n1)Nc1ccccc1` [Compound 25a, N-Phenyl-2-(3-(pyrimidin-4-yl)-4-(quinoxalin-6-yl)-1H-pyrazol-1-yl)acetamide]: the melting point was in the range of 170.3 to 172.5 °C. In addition, at ALK5 [1], the IC50 was determined as 5.03 µM, the “Selectivity Index” value is listed as greater than 2 and the “ALK5 inhibitory activity in words” value is on record as “no significant ALK5 inhibition activity”. Moreover, the 50% inhibitory concentration (IC50) on p38α MAP kinase was greater than 10 µM.

For `Cc1csc(-c2nn(CC(=O)Nc3ccccc3)cc2-c2ccc3nccnc3c2)n1` [Compound 16a, 2-(3-(4-Methylthiazol-2-yl)-4-(quinoxalin-6-yl)-1H-pyrazol-1-yl)-N-phenylacetamide], the melting point lay in the range of 190.2 to 192.5 °C. Also, the remaining activity at 10 µM on ALK5 [1] was 5%. For the same compound, the remaining activity at 10 µM at p38α MAP kinase was 98%.

As a reminder, the pIC50 is the negative decadic logarithm of the IC50, by convention in mol/L. For the compound `Cc1cccc(-c2nn(C(=S)Nc3ccccc3)cc2-c2ccnc3ccccc23)n1` [Compound 6, A-83-01], in the data set on ALK5 [2], the pIC50 is 7.92.

In turn, `CN(C)c1cccc(-c2nn(CC(=S)Nc3cccc(C#N)c3)cc2-c2ccc3nccnc3c2)n1` [Compound 18d, N-(3-Cyanophenyl)-2-(3-(6-(dimethylamino)pyridin-2-yl)-4-(quinoxalin-6-yl)-1H-pyrazol-1-yl)ethanethioamide] came in with a melting point of 108.5 to 110 °C. On ALK5 [1], the concentration for half-maximal inhibition (IC50) was greater than 10 µM and the remaining activity at 10 µM came to 54%. Moreover, on p38α MAP kinase, the IC50 was greater than 10 µM and the remaining activity at 10 µM came to 119%.

Turning to `Cc1csc(-c2nn(CC(=O)Nc3cccc(C#N)c3)cc2-c2ccc3nccnc3c2)n1` [Compound 16d, N-(3-Cyanophenyl)-2-(3-(4-methylthiazol-2-yl)-4-(quinoxalin-6-yl)-1H-pyrazol-1-yl)acetamide], the melting point lay within 222.3 to 223 °C. Besides, at ALK5 [1], the remaining activity at 10 µM amounted to 3%. In addition, the remaining activity at 10 µM at p38α MAP kinase was 108%.

The compound `CN(C)c1cccc(-c2nn(CC(=S)Nc3cccc(F)c3)cc2-c2ccc3nccnc3c2)n1` [Compound 18c, 2-(3-(6-(Dimethylamino)pyridin-2-yl)-4-(quinoxalin-6-yl)-1H-pyrazol-1-yl)-N-(3-fluorophenyl)ethanethioamide] showed a melting point of 68.5 to 70.2 °C. In addition, on ALK5 [1], the half-maximal inhibitory concentration (IC50) was 5 µM, the “Selectivity Index” value is greater than 2 and the remaining activity at 10 µM worked out at 29%. At p38α MAP kinase, the half-inhibitory concentration (IC50) was greater than 10 µM and the remaining activity at 10 µM worked out at 165%.

The compound `CN(C)c1cccc(-c2nn(CC(=O)Nc3cccc(F)c3)cc2-c2ccc3nccnc3c2)n1` [Compound 14c, 2-(3-(6-(Dimethylamino)pyridin-2-yl)-4-(quinoxalin-6-yl)-1H-pyrazol-1-yl)-N-(3-fluorophenyl)acetamide] yielded a melting point of 176.5 to 178.5 °C. In addition, the remaining activity at 10 µM at ALK5 [1] was found to be 37%. Also, the remaining activity at 10 µM at p38α MAP kinase was determined as 121%.
